Columns and labels:
Assay type in all cases: cell-based
[1] = test system: human peripheral blood mononuclear cells; experiment: Endotoxin-induced secretion of mature IL-1β by peripheral blood mononuclear cells (ELISA)
Experimental: Reagents IL-18BPa isoform was expressed with a N-terminal (His)6 tag in Chinese hamster ovary cells and purified to homogeneity. The ability of IL-18BPa-(His)6 to neutralize IL-18 has been described (Kim et al., 2000). The ICE inhibitor (ICEi) Ac-Try-Val-Ala-Asp-chloromethylketone (YVAD) was purchased from Alexis Biochemicals (San Diego) and solubililized in DMSO at 10 mg/ml. The ICEi was diluted in Tyrode's solution before being used. On human peripheral blood mononuclear cells, the ICEi reduces endotoxin-induced secretion of mature IL-1β by 92%, as measured by ELISA (Cistron Biotechnology, Pine Brook, NJ).

human atrial trabeculae [2] = experiment: Ischemia/reperfusion of suprafused human atrial trabeculae: postischemic developed force; conditions: N=7, I/R alone 35%
Experimental: (§1) Isolated Atrial Trabeculae Patients undergoing elective coronary artery bypass surgery with a pump oxygenator require insertion of a canula into the right atrium. At that time, a small segment of the right atrial appendage is routinely excised and discarded. Trabeculae were obtained from this discarded tissue. Human atrial tissue was placed in oxygenated modified Tyrode's buffer solution at 4° C. Modified Tyrode's solution was prepared daily with deionized distilled water and contained D-glucose at 5.0 mmol/liter, CaCl2 at 2.0 mmol/liter, NaCl at 118.0 mmol/liter, KCl at 4.0 mmol/liter, MgSO4.7H2O at 1.2 mmol/liter, NaHCO3 at 25.0 mmol/liter, and NaH2PO4 at 1.2 mmol/liter. […]
Experimental Design Trabeculae were equilibrated for 90 min to increase the baseline stretch force to 1,000 mg and to allow stabilization of developed force. […] Contractions were monitored by force transducers (Grass FT03) and recorded with a computerized preamplifier and digitizer (MacLab Quad Bridge, MacLab/8e, AD Instruments, Milford, Mass.) and continuously monitored with a Macintosh computer. […]
Statisical Analysis Data are expressed as the mean±SEM. Mean changes in developed force were calculated relative to the control value at 90 min for each patient's tissue. Statistical significance of differences between groups were determined by factorial ANOVA with Bonferroni-Dunn post hoc analysis. […]

human atrial trabeculae [3] = experiment: Developed force of human atrial trabeculae exposed to exogenous IL-18 under normoxic conditions
Experimental: Mature IL-18 (100 ng/ml) were added to atrial trabeculae throughout the 90 min experimental period. The vertical axis indicates the mean percent change from baseline developed force. The baseline was determined at the end of the equilibration period (not shown). (n=6). *P<0.05, **P<0.001 as compared to control at the same interval and for the remainder of the experimental period.
Isolated Atrial Trabeculae Patients undergoing elective coronary artery bypass surgery with a pump oxygenator require insertion of a canula into the right atrium. At that time, a small segment of the right atrial appendage is routinely excised and discarded. Trabeculae were obtained from this discarded tissue. Human atrial tissue was placed in oxygenated modified Tyrode's buffer solution at 4° C. […]
(§2) Experimental Design Trabeculae were equilibrated for 90 min to increase the baseline stretch force to 1,000 mg and to allow stabilization of developed force. […] Contractions were monitored by force transducers (Grass FT03) and recorded with a computerized preamplifier and digitizer (MacLab Quad Bridge, MacLab/8e, AD Instruments, Milford, Mass.) and continuously monitored with a Macintosh computer.
Next, the direct effect of exogenous IL-18 on myocardial contractile function was determined. […]

human atrial trabeculae [4] = experiment: Tissue creatine kinase (CK) activity in trabeculae exposed to TNFα, with or without IL-18BP; conditions: 90 minutes of TNFα exposure alone; n=6; control 6801±276
Experimental: CK activity is expressed in units of CK activity per milligram of wet tissue weight. (n=6).
Preserved Trabecular CK Activity End reperfusion tissue (90 min) CK activity was determined as described (Kaplan et al., 1993). Tissues were homogenized in 100 vol of ice-cold isotonic extraction buffer (Cleveland et al., 1997, Kaplan et al., 1993). The assay was performed with a CK kit (Sigma) by using an automated spectrophotometer. Results are presented as units of CK activity per mg (wet weight of tissue).
Casases are often associated with apoptosis. To assess cellular viability in trabeculae exposed to TNFα, tissue intracellular creatine kinase (CK) was measured. In this assay, high CK levels indicate viable cells. As depicted in FIG. 8, control trabeculae which underwent 90 minutes of normoxic superfusion, contained 6801±276 units of CK activity per milligram of wet tissue weight. […] Trabeculae exposed to TNFα in the presence of IL-18BP contained 5605±212 units/mg of tissue. […] This was an unexpected finding since the magnitude of developed force at the end of the experimental period was similar for I/R and TNFα.

human atrial trabeculae [5] = experiment: Developed force of human atrial trabeculae exposed to exogenous TNFα, with or without IL-18BP; conditions: TNFα 1 ng/ml alone; after 90 minutes; n=5
Experimental: TNFα and IL-18BP were added to each bath change.
as §1, with “mmol/liter. The substrate-free Tyrode's solution contained choline chloride at 7 mmol/liter to maintain osmolarity. Unless otherwise indicated, chemicals and reagents were obtained from Sigma.” for “mmol/liter.”
as §2

For “Ac-Try-Val-Ala-Asp-chloromethylketone [ICEi]”, the “reduction of endotoxin-induced secretion of mature IL-1β” value [1] was 92%, the “postischemic contractile function, percent of control” value (human atrial trabeculae [2]; ICEi 10 μg/ml) was 60% and the “postischemic contractile function, percent of control” value (human atrial trabeculae [2]; ICEi 20 μg/ml) was 75.8%.
In the case of “IL-18: exogenous mature IL-18 added to atrial trabeculae”, the “decrease in developed force” value (human atrial trabeculae [3]; IL-18 100 ng/ml, 90 minutes continuous exposure, normoxic, n=6) is reported as 42% and the “potency as myocardial depressant compared with TNFα” value (human atrial trabeculae [3]; human atrial trabeculae) is reported as “not as potent a myocardial depressant as is TNFα”.
In the case of TNFα, the “preserved tissue CK activity” value (human atrial trabeculae [4]) is reported as 3246±217 units/mg and the “decrease in developed force compared to control” value (human atrial trabeculae [5]) is reported as 58%.

Source: US20040234523A1, “Use of IL-18 inhibitors for the treatment and/or prevention of heart disease” (priority 2001, published 2004)
